The conditions of data set [1]: background statement; cited from earlier work.
A further data set can be described thus: in vivo. The settings on record: rabbit, po, 5 mg/kg.
For data set [2] the following is noted: rabbit, in vivo, po, 5 mg/kg, 360 min.
The nature of data set [3]: Acute toxicity test, oral route. The settings on record: mouse, in vivo, aqueous solution, groups of three ICR-strain male mice. As for the experimental part:
The cromoglycic acid derivatives produced in Examples 1, 4, 7, 11 and 12 were administered, each in the form of an aqueous solution, to groups of three ICR-strain male mice by the oral route.

Counter-ions that a name gives are not always drawn.

As to `O=C(O)c1cc(=O)c2c(OCC(O)COc3cccc4oc(C(=O)O)cc(=O)c34)cccc2o1` [Cromoglycic acid], the “absorption in the digestive tract” value in data set [1] is recorded as “cannot be absorbed in the digestive tract”. The molecule also displayed a dose excreted at 6 h in “in vivo” of 3.5%.
As to `CCOC(=O)c1cc(=O)c2c(OCC(COc3cccc4oc(C(=O)OCC)cc(=O)c34)OC(=O)[C@@H](N)CCCCN)cccc2o1` [Example 1, diethyl L-lysylcromoglycate dihydrochloride], the “0-6 Hr urinary recovery” value in data set [2] is on record as 32.6%. Moreover, the LD50 in data set [3] was above 1000 mg/kg.
Turning to `CCOC(=O)c1cc(=O)c2c(OCC(COc3cccc4oc(C(=O)OCC)cc(=O)c34)OC(=O)[C@H](C)N)cccc2o1` [Example 4, diethyl L-alanylcromoglycate hydrochloride], the “0-6 Hr urinary recovery” value in data set [2] is given as 20.2%. In addition, the LD50 in data set [3] was above 1000 mg/kg.
With `CCOC(=O)c1cc(=O)c2c(OCC(COc3cccc4oc(C(=O)OCC)cc(=O)c34)OC(=O)CNC(=O)[C@H](C)N)cccc2o1` [Example 7, diethyl N-(L-alanyl)glycylcromoglycate hydrochloride], the “0-6 Hr urinary recovery” value in data set [2] was 21.4%. The molecule also came in with an LD50 in data set [3] above 1000 mg/kg.
As for `CCOCCOC(=O)c1cc(=O)c2c(OCC(COc3cccc4oc(C(=O)OCCOCC)cc(=O)c34)OC(=O)[C@@H](N)CCCCN)cccc2o1` [Example 11, di(2-ethoxyethyl) L-lysylcromoglycate dihydrochloride], the “0-6 Hr urinary recovery” value in data set [2] was determined as 25.4%. Further, the LD50 in data set [3] is above 1000 mg/kg.
In the case of `CCOCCOC(=O)c1cc(=O)c2c(OCC(COc3cccc4oc(C(=O)OCCOCC)cc(=O)c34)OC(=O)[C@H](C)N)cccc2o1` [Example 12, di(2-ethoxyethyl) L-alanylcromoglycate hydrochloride], the “0-6 Hr urinary recovery” value in data set [2] came out at 21.8%. Besides, in data set [3], the LD50 was above 1000 mg/kg.

Source of the values: patent US4847286A, “Cromoglycic acid derivatives, method of production thereof and pharmaceutical composition” (priority 1985, dated 1989).
